The text below walks through data of patent US8389555B2, “Medicaments” (Motac Neuroscience Limited, priority 2007, dated 2013).

In general, melting point refers to the temperature, or range, at which the solid turns liquid.

SMILES strings stand for the structures. Where a name gives a salt, the structure may show the parent alone.

`C#CCN(CCCCNC(=O)c1ccc2ccccc2c1)C1CCc2ncsc2C1` (centres unmarked) (as salt: salt) [Compound 7, Naphthalene-2-carboxylic acid {4-[prop-2-ynyl-(4,5,6,7-tetrahydro-benzothiazol-6-yl)-amino]-butyl}-amide] came in with a melting point of 126 °C.

In turn, `CCCN(CCN1CCN(C(=O)c2ccccc2)CC1)C1CCc2ncsc2C1` (centres unmarked) (as salt: salt) [Compound 38, [2-(4-Benzoyl-piperazin-1-yl)-ethyl]-propyl-(4,5,6,7-tetrahydro-benzothiazol-6-yl)-amine] showed a melting point of 186 °C.

In turn, `CC#CCN(CCCCNC(=O)c1ccc2ccccc2c1)C1CCc2ncsc2C1` (centres unmarked) (as salt: salt) [Compound 8, Naphthalene-2-carboxylic acid {4-[but-2-ynyl-(4,5,6,7-tetrahydro-benzothiazol-6-yl)-amino]-butyl}-amide] registered a melting point of 147 °C.

In turn, `CCCN(CCCCNC(=O)C12CC3CC(CC(C3)C1)C2)C1CCc2ncsc2C1` (centres unmarked) (as salt: salt) [Compound 65] showed a melting point of 114 °C.

The compound `CCCN(CCCCNC(=O)C1Cc2ccccc2C1)C1CCc2ncsc2C1` (centres unmarked) (as salt: salt) [Compound 26, Indane-2-carboxylic acid-{4-[propyl-(4,5,6,7-tetrahydrobenzothiazol-6-yl)amino]butyl}amide] returned a melting point of 119 °C.

Consider `CCCN(CCCCC(=O)Nc1ccc2ccccc2c1)C1CCc2ncsc2C1` (centres unmarked) (as salt: salt) [Compound 9, 5-[Propyl-(4,5,6,7-tetrahydro-benzothiazol-6-yl)-amino]-pentanoic acid naphthalen-2-ylamide], for which the melting point worked out at 85 °C.

`CCCN(CCCCNC(=O)N1Cc2ccccc2C1)C1CCc2ncsc2C1` (centres unmarked) (as salt: salt) [Compound 27, 1,3-Dihydro-isoindole-2-carboxylic acid {4-[propyl-(4,5,6,7-tetrahydro-benzothiazol-6-yl)-amino]-butyl}-amide] showed a melting point of 118 °C.

In turn, `C=CCN(CCCCNC(=O)c1ccc2ccccc2c1)C1CCc2ncsc2C1` (centres unmarked) (as salt: salt) [Compound 6, Naphthalene-2-carboxylic acid {4-[allyl-(4,5,6,7-tetrahydro-benzothiazol-6-yl)-amino]-butyl}-amide] came in with a melting point of 128 °C.

For the compound `CCCN(CCCCNC(=O)NC1CCCCC1)C1CCc2ncsc2C1` (centres unmarked) (as salt: salt) [Compound 22, 1-Cyclohexyl-3-{4-[propyl-(4,5,6,7-tetrahydro-benzothiazol-6-yl)-amino]-butyl}-urea], the melting point stood at 149 °C.

The compound `CCCN(CCCCNC(=O)C1CCCCC1)C1CCc2ncsc2C1` (centres unmarked) (as salt: salt) [Compound 20, Cyclohexanecarboxylic acid {4-[propyl-(4,5,6,7-tetrahydro-benzothiazol-6-yl)-amino]-butyl}-amide] yielded a melting point of 130 °C.

With `CCN(CCNC(=O)c1ccc2ccccc2c1)C1CCc2ncsc2C1` (centres unmarked) (as salt: salt) [Compound 32, Naphthalene-2-carboxylic acid {2-[ethyl-(4,5,6,7-tetrahydro-benzothiazol-6-yl)-amino]-ethyl}-amide], the melting point is 110 °C.

`CCCN(CCCCNC(=O)N1CCc2cc(OC)c(OC)cc2C1)C1CCc2ncsc2C1` (centres unmarked) (as salt: salt) [Compound 25, 6,7-Dimethoxy-3,4-dihydro-1H-isoquinoline-2-carboxylic acid {4-[propyl-(4,5,6,7-tetrahydro-benzothiazol-6-yl)-amino]-butyl}-amide] returned a melting point of 106 °C.

`CCN(CCN(CC)C1CCc2ncsc2C1)C1CCc2ncsc2C1` (centres unmarked) (as salt: salt) [Compound 33, N,N′-Diethyl-N,N′-bis-(4,5,6,7-tetrahydro-benzothiazol-6-yl)-ethane-1,2-diamine]: the melting point is 83 °C.

Regarding `CCCN(CCCCNC(=O)N1CCC(c2ccccc2)CC1)C1CCc2ncsc2C1` (centres unmarked) (as salt: salt) [Compound 64, 4-phenyl-N-(4-(propyl-(4,5,6,7-tetrahydrobenzo [d]thiazol-6-yl)amino)butyl)piperidine-1-carboxamide], the melting point worked out at 56 °C.
